The values below come from patent US7799819B2, “7-Amido-isoindolyl compounds and their pharmaceutical uses” (Celgene Corporation, priority 2003, dated 2010).

Counter-ions that a name gives are not always drawn.

In general, melting point refers to the temperature, or range, at which the solid turns liquid.

With `CCOc1cc([C@@H](CS(C)(=O)=O)N2Cc3c(Cl)ccc(NC(=O)CN4CCOCC4)c3C2=O)ccc1OC.Cl`, the melting point fell in the range of 198 to 200 °C.

With `CCOc1cc([C@@H](CS(C)(=O)=O)N2Cc3c(Cl)ccc(NC(=O)CN(C)C)c3C2=O)ccc1OC.Cl`, the melting point fell in the range of 198 to 200 °C.

Compound `CCOc1cc([C@@H](CCN(C)C)N2Cc3cccc(NC(=O)C4CC4)c3C2=O)ccc1OC.Cl` gave a melting point of 119 to 121 °C.

For `CCOc1cc([C@@H](CCN)N2Cc3cccc(NC(=O)C4CC4)c3C2=O)ccc1OC` (as salt: salt) [Example 5, (1R)-Cyclopropanecarboxylic acid {2-[3-amino-1-(3-ethoxy-4-methoxy-phenyl)-propyl]-3-oxo-2,3-dihydro-1H-isoindol-4-yl}-amide], the melting point was 169 to 171 °C.

In turn, `CCOc1cc([C@@H](CCO)N2Cc3cccc(NC(=O)C4CC4)c3C2=O)ccc1OC` [Example 1, (1R)-Cyclopropanecarboxylic acid {2-[1-(3-ethoxy-4-methoxy-phenyl)-3-hydroxy-propyl]-3-oxo-2,3-dihydro-1H-isoindol-4-yl}-amide] yielded a melting point of 103 to 105 °C.

As to `CCOc1cc(C(CCN(OC(=O)OC(C)(C)C)C(=O)OC(C)(C)C)N2Cc3cccc(NC(=O)C4CC4)c3C2=O)ccc1OC` [Example 2, (3R)-(tert-Butoxy)-N-{3-[7-(cyclopropylcarbonylamino)-1-oxoisoindolin-2-yl]-3-(3-ethoxy-4-methoxyphenyl)propyl}carbonylamino(tert-butoxy)formate], the melting point fell in the range of 153 to 155 °C.

The compound `CCOc1cc([C@@H](CCNO)N2Cc3cccc(NC(=O)C4CC4)c3C2=O)ccc1OC` [Example 3, (1R)-Cyclopropanecarboxylic acid {2-[1-(3-ethoxy-4-methoxy-phenyl)-3-hydroxyamino-propyl]-3-oxo-2,3-dihydro-1H-isoindol-4-yl}-amide] gave a melting point of 136 to 138 °C.

With `CCOc1cc([C@@H](CCNS(C)(=O)=O)N2Cc3cccc(NC(=O)C4CC4)c3C2=O)ccc1OC` [Example 4, (1R)-Cyclopropanecarboxylic acid {2-[1-(3-ethoxy-4-methoxy-phenyl)-3-methanesulfonylamino-propyl]-3-oxo-2,3-dihydro-1H-isoindol-4-yl}-amide], the melting point fell in the range of 93 to 95 °C.

Regarding `CCOc1cc([C@@H](CCNC(N)=O)N2Cc3cccc(NC(=O)C4CC4)c3C2=O)ccc1OC` [Example 6, (1R)-Cyclopropanecarboxylic acid {2-[1-(3-ethoxy-4-methoxy-phenyl)-3-ureido-propyl]-3-oxo-2,3-dihydro-1H-isoindol-4-yl}-amide], the melting point is 162 to 164 °C.

Compound `CCOc1cc([C@@H](CCS(C)(=O)=O)N2Cc3cccc(NC(=O)C4CC4)c3C2=O)ccc1OC` [Example 8, (1R)-Cyclopropanecarboxylic acid {2-[1-(3-ethoxy-4-methoxy-phenyl)-3-methanesulfonyl-propyl]-3-oxo-2,3-dihydro-1H-isoindol-4-yl}-amide] had a melting point of 148 to 150 °C.

As to `CCOc1cc([C@@H](CC(=O)NO)N2Cc3cccc(NC(=O)C4CC4)c3C2=O)ccc1OC` [Example 9, (1R)-Cyclopropanecarboxylic acid {2-[1-(3-ethoxy-4-methoxy-phenyl)-2-hydroxycarbamoyl-ethyl]-3-oxo-2,3-dihydro-1H-isoindol-4-yl}-amide], the melting point was in the range of 160 to 162 °C.

Turning to `CCOc1cc([C@@H](CC(=O)NOC(C)=O)N2Cc3cccc(NC(=O)C4CC4)c3C2=O)ccc1OC` [Example 10, (1R)-Cyclopropanecarboxylic acid {2-[2-acetoxycarbamoyl-1-(3-ethoxy-4-methoxy-phenyl)-ethyl]-3-oxo-2,3-dihydro-1H-isoindol-4-yl}-amide], the melting point was in the range of 140 to 142 °C.

As for `CCOc1cc([C@@H](CC[S+](C)[O-])N2Cc3cccc(NC(=O)C4CC4)c3C2=O)ccc1OC` (stereo partly drawn) [Example 11, (3R)-Cyclopropanecarboxylic acid {2-[1-(3-ethoxy-4-methoxy-phenyl)-3-methanesulfinyl-propyl]-3-oxo-2,3-dihydro-1H-isoindol-4-yl}-amide], the melting point lay within 122 to 125 °C.

In the case of `CCOc1cc([C@@H](CC(=O)O)N2Cc3c(Cl)ccc(NC(=O)C4CC4)c3C2=O)ccc1OC` [Example 12, (3R)-3-[4-Chloro-7-(cyclopropanecarbonyl-amino)-1-oxo-1,3-dihydro-isoindol-2-yl]-3-(3-ethoxy-4-methoxy-phenyl)-propionic acid], the melting point lay in the range of 118 to 120 °C.

With `CCOc1cc([C@@H](CC(=O)OC)N2Cc3c(Cl)ccc(NC(=O)C4CC4)c3C2=O)ccc1OC` [Example 13, (3R)-3-[4-Chloro-7-(cyclopropanecarbonyl-amino)-1-oxo-1,3-dihydro-isoindol-2-yl]-3-(3-ethoxy-4-methoxy-phenyl)-propionic acid methyl ester], the melting point fell in the range of 158 to 160 °C.

As for `CCOc1cc([C@@H](CC(N)=O)N2Cc3c(Cl)ccc(NC(=O)C4CC4)c3C2=O)ccc1OC` [Example 14, (1R)-Cyclopropanecarboxylic acid {2-[2-carbamoyl-1-(3-ethoxy-4-methoxy-phenyl)-ethyl]-7-chloro-3-oxo-2,3-dihydro-1H-isoindol-4-yl}-amide], the melting point lay within 201 to 203 °C.

Consider `CCOc1cc([C@@H](CC(=O)N(C)C)N2Cc3c(Cl)ccc(NC(=O)C4CC4)c3C2=O)ccc1OC` [Example 15, (1R)-Cyclopropanecarboxylic acid {7-chloro-2-[2-dimethylcarbamoyl-1-(3-ethoxy-4-methoxy-phenyl)-ethyl]-3-oxo-2,3-dihydro-1H-isoindol-4-yl}-amide], for which the melting point was in the range of 163 to 165 °C.

For `CCOc1cc([C@@H](CC(=O)NOC(C)=O)N2Cc3c(Cl)ccc(NC(=O)C4CC4)c3C2=O)ccc1OC` [Example 17, (1R)-Cyclopropanecarboxylic acid {2-[2-acetoxycarbamoyl-1-(3-ethoxy-4-methoxy-phenyl)-ethyl]-7-chloro-3-oxo-2,3-dihydro-1H-isoindol-4-yl}-amide], the melting point was in the range of 139 to 141 °C.

As to `CCOc1cc([C@@H](CS(C)(=O)=O)N2Cc3c(Cl)ccc(NC(=O)C4CC4)c3C2=O)ccc1OC` [Example 18, (1S)-Cyclopropanecarboxylic acid {7-chloro-2-[1-(3-ethoxy-4-methoxy-phenyl)-2-methanesulfonyl-ethyl]-3-oxo-2,3-dihydro-1H-isoindol-4-yl}-amide], the melting point is 197 to 199 °C.

The compound `CCOc1cc([C@@H](CS(C)(=O)=O)N2Cc3c(Br)ccc(NC(=O)C4CC4)c3C2=O)ccc1OC` [Example 19, (1S)-Cyclopropanecarboxylic acid {7-bromo-2-[1-(3-ethoxy-4-methoxy-phenyl)-2-methanesulfonyl-ethyl]-3-oxo-2,3-dihydro-1H-isoindol-4-yl}-amide] showed a melting point of 219 to 221 °C.

For `CCOc1cc(C(CC)N2Cc3cccc(NC(=O)C4CC4)c3C2=O)ccc1OC` (centres unmarked) [Example 20, Cyclopropanecarboxylic acid {2-[1-(3-ethoxy-4-methoxy-phenyl)-propyl]-3-oxo-2,3-dihydro-1H-isoindol-4-yl}-amide], the melting point lay within 107 to 109 °C.

With `CCOc1cc(C(CC#N)N2Cc3c(Cl)ccc(NC(=O)C4CC4)c3C2=O)ccc1OC` (centres unmarked) [Example 21, Cyclopropanecarboxylic acid {7-chloro-2-[2-cyano-1-(3-ethoxy-4-methoxy-phenyl)-ethyl]-3-oxo-2,3-dihydro-1H-isoindol-4-yl}-amide], the melting point was 200 to 202 °C.

As for `CCOc1cc(C(Cc2c(Cl)cncc2Cl)N2Cc3cccc(NC(=O)C4CC4)c3C2=O)ccc1OC` (centres unmarked) [Example 22, Cyclopropanecarboxylic acid {2-[2-(3,5-dichloro-pyridin-4-yl)-1-(3-ethoxy-4-methoxy-phenyl)-ethyl]-3-oxo-2,3-dihydro-1H-isoindol-4-yl}-amide], the melting point is 159 to 161 °C.

`CCOc1cc([C@@H](CC(C)(C)O)N2Cc3cccc(NC(=O)C4CC4)c3C2=O)ccc1OC` [Example 23, (1R)-Cyclopropanecarboxylic acid {2-[1-(3-ethoxy-4-methoxy-phenyl)-3-hydroxy-3-methyl-butyl]-3-oxo-2,3-dihydro-1H-isoindol-4-yl}-amide] yielded a melting point of 90 to 92 °C.

Turning to `CCOc1cc([C@@H](CC(=O)NOC(=O)C2CC2)N2Cc3cccc(NC(=O)C4CC4)c3C2=O)ccc1OC` [Example 24, (1R)-Cyclopropanecarboxylic acid {2-[2-cyclopropanecarbonyloxycarbamoyl-1-(3-ethoxy-4-methoxy-phenyl)-ethyl]-3-oxo-2,3-dihydro-1H-isoindol-4-yl}-amide], the melting point is 130 to 132 °C.

The compound `CCOc1cc([C@@H](CC(=O)NOC(=O)C(C)C)N2Cc3cccc(NC(=O)C4CC4)c3C2=O)ccc1OC` [Example 25, (1R)-Cyclopropanecarboxylic acid {2-[1-(3-ethoxy-4-methoxy-phenyl)-2-isobutyryloxycarbamoyl-ethyl]-3-oxo-2,3-dihydro-1H-isoindol-4-yl}-amide] showed a melting point of 107 to 109 °C.

In turn, `CCOc1cc([C@@H](CC(=O)NOC(=O)C(C)(C)C)N2Cc3cccc(NC(=O)C4CC4)c3C2=O)ccc1OC` [Example 26, (1R)-Cyclopropanecarboxylic acid {2-[2-(2,2-dimethyl-propionyloxycarbamoyl)-1-(3-ethoxy-4-methoxy-phenyl)-ethyl]-3-oxo-2,3-dihydro-1H-isoindol-4-yl}-amide] returned a melting point of 146 to 148 °C.

Turning to `CCOc1cc([C@@H](CC(=O)NOC(=O)CC(C)(C)C)N2Cc3cccc(NC(=O)C4CC4)c3C2=O)ccc1OC` [Example 27, (1R)-Cyclopropanecarboxylic acid {2-[2-(3,3-dimethyl-butyryloxycarbamoyl)-1-(3-ethoxy-4-methoxy-phenyl)-ethyl]-3-oxo-2,3-dihydro-1H-isoindol-4-yl}-amide], the melting point is 118 to 120 °C.

For `CCOc1cc([C@@H](CS(C)(=O)=O)N2Cc3c(F)ccc(NC(=O)C4CC4)c3C2=O)ccc1OC` [Example 28, (1S)-Cyclopropanecarboxylic acid {2-[1-(3-ethoxy-4-methoxy-phenyl)-2-methanesulfonyl-ethyl]-7-fluoro-3-oxo-2,3-dihydro-1H-isoindol-4-yl}-amide], the melting point is 176 to 178 °C.
